Measurements from patent publication US8309582B2, “Small molecule Bcl-Xl/Bcl-2 binding inhibitors” (The Ohio State University Research Foundation, priority 2004, dated 2012).
Like-named read-outs stand apart in the source and are kept apart here.

Tests used:
Bcl-xL = target: T1, Bcl-xL (Homo sapiens, UniProt Q07817); test: Competitive fluorescence polarization assay, displacement of Flu-BakBH3 peptide from Bcl-xL; type: binding
T1 construct: fused on or other part: His tag
Experimental: (§1) Competitive Fluorescence Polarization Assay. The binding affinity of the test agent to Bcl-2 and Bcl-xL was analyzed by a competitive fluorescence polarization assay, in which the ability of the agent to displace the binding of a Bak BH3-domain peptide to either Bcl-2 or Bcl-xL was determined. Flu-BakBH3, a Bak-BH3 peptide labeled at the N-terminus with fluorescein, was purchased from Genemed Synthesis (San Francisco, Calif.). C-Terminal-truncated, His-tagged Bcl-xL was purchased from EMD Biosciences (San Diego, Calif.), and soluble GST-fused Bcl-2 was obtained from Santa Cruz (Santa Cruz, Calif.). The KD determination was carried out in a dual-pathlength quartz cell with readings taken at […] at room temperature using a luminescence spectrometer according to an established procedure (17). Determination of IC50 values. Data from cell viability and FP assays were analyzed by using the CalcuSyn software (Biosoft, Ferguson, Mo.) to determine IC50 values, in which the calculation was based on the medium effect equation (18), i.e., Log(fa/fu)=m log(D)−m log(Dm) (equation 1), where fa and fu denote fraction affected and unaffected, respectively; m represents the Hill-type coefficient signifying the sigmoidicity of the dose-effect curve; D and Dm are the dose used and IC50, respectively.

Bcl-2 = Bcl-2 (Homo sapiens, UniProt P10415); test: Competitive fluorescence polarization assay, displacement of Flu-BakBH3 peptide from Bcl-2; type: binding
Bcl-2, sequence (P10415 whole entry): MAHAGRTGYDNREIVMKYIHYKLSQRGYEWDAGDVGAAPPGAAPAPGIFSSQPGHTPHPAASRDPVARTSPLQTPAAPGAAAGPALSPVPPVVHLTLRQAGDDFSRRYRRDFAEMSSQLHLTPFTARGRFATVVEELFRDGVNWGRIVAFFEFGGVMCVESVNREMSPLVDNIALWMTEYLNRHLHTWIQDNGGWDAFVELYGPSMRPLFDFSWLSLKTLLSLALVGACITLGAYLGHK
Experimental: as §1

PC-3 cells = test: Cell viability analysis (MTT) in PC-3 cells; type: cell-based; settings: read-out: IC50 (μM) PC3
Experimental: Cell viability analysis. The effect of individual test agents on cell viability was assessed by using the MTT {[3-(4,5-dimethylthiazol-2-yl)-2,5-diphenyl-2H-tetrazolium bromide]} assay in six to twelve replicates. […] Controls received DMSO vehicle at a concentration equal to that in drug-treated cells. […] Supernatants were removed from the wells, and the reduced MTT dye was solubilized in 200 μl/well DMSO. Absorbance at 570 nm was determined on a plate reader.
(§2) Determination of IC50 values. Data from cell viability and FP assays were analyzed by using the CalcuSyn software (Biosoft, Ferguson, Mo.) to determine IC50 values, in which the calculation was based on the medium effect equation (18), i.e., Log(fa/fu)=m log(D)−m log(Dm) (equation 1), where fa and fu denote fraction affected and unaffected, respectively; m represents the Hill-type coefficient signifying the sigmoidicity of the dose-effect curve; D and Dm are the dose used and IC50, respectively.

LNCaP cells = test: Cell viability analysis (MTT) in LNCaP cells; type: cell-based; settings: Homo sapiens
Experimental: (§3) Cell viability analysis. The effect of individual test agents on cell viability was assessed by using the MTT {[3-(4,5-dimethylthiazol-2-yl)-2,5-diphenyl-2H-tetrazolium bromide]} assay in six to twelve replicates. Cells were seeded and incubated in 96-well, flat-bottomed plates in serum-free media for 24 h, and were exposed to various concentrations of test agents dissolved in DMSO (final concentration, 0.1%) in serum-free RPMI 1640 medium for different time intervals. Controls received DMSO vehicle at a concentration equal to that in drug-treated cells. The medium was removed, replaced by 200 μl of 0.5 mg/ml of MTT in 10% FBS-containing RPMI-1640 medium, and cells were incubated in the CO2 incubator at 37° C. for 2 h. Supernatants were removed from the wells, and the reduced MTT dye was solubilized in 200 μl/well DMSO. Absorbance at 570 nm was determined on a plate reader.
as §2

[1] = MTT assay (IC50 for MTT, Tables 1-9); type: cell-based; settings: cell line and unit inferred
Experimental: as §3, §2

[2] = WB (IC50 for WB, Tables 1-9); type: cell-based; settings: marker, cell line and unit inferred
Experimental: Immunoblotting. Cells in T-75 flasks were collected by scraping, and suspended in 60 μl of phosphate-buffered saline (PBS). Two μl of the suspension was taken for protein analysis using the Bradford assay kit (Bio-Rad, Hercules, Calif.). To the remaining solution was added the same volume of 2×SDS-PAGE sample loading buffer (100 mM Tris-HCl, pH 6.8, 4% SDS, 5% β-mercaptoethanol 20% glycerol, and 0.1% bromophenol blue). The mixture was sonicated briefly, and boiled for 5 min. Equal amounts of proteins were loaded onto 10% SDS-PAGE gels.
After electrophoresis, protein bands were transferred to nitrocellulose membranes in a semidry transfer cell. The transblotted membrane was washed twice with Tris-buffered saline (TBS) containing 0.1% Tween 20 (TBST). After blocking with TBST containing 5% nonfat milk for 40 min, the membrane was incubated with the appropriate primary antibody in TBST-1% nonfat milk at 4° C. overnight. All primary antibodies were diluted 1:1000 in 1% nonfat milk-containing TBST. After treatment with the primary antibody, the membrane was washed three times with TBST for a total of 15 min, followed by incubation with goat anti-rabbit or anti-mouse IgG-horseradish peroxidase conjugates (diluted 1:5000) for 1 h at room temperature and three washes with TBST for a total of 1 h. The immunoblots were visualized by enhanced chemiluminescence.

PPARγ = target: T2, PPARγ (Homo sapiens, UniProt P37231); test: Analysis of PPARγ activation (transcription factor ELISA, PC-3 nuclear extracts); type: cell-based; settings: PC-3 cells, 10 μM, 48 h, versus DMSO vehicle
T2 construct: endogenous in cells; host or cells: PC-3 prostate cancer cells
T2 sequence (P37231 1-505): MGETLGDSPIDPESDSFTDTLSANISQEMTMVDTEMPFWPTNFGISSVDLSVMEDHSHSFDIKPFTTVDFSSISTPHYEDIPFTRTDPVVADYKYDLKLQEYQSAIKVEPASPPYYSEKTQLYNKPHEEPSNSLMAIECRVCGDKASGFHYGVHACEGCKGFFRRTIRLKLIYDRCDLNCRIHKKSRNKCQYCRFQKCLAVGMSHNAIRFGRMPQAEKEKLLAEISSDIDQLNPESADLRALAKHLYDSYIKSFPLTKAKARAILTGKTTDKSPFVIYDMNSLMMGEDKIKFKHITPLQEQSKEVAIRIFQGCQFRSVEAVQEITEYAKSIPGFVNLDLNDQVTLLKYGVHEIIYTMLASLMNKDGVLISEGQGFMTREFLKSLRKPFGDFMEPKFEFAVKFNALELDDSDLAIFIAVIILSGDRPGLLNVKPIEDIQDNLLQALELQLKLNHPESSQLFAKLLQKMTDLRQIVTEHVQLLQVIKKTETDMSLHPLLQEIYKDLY
Experimental: Analysis of PPARγ activation. The analysis was carried out by using a PPARγ transcription factor ELISA kit (Active Motif, Carlsbad, Calif.), in which an oligonucleotide containing the peroxisome proliferator response element (PPRE) was immobilized onto a 96-well plate. PPARs contained in nuclear extracts bind specifically to this oligonucleotide and are detected through an antibody directed against PPARγ. […] Cells were collected, and nuclear extracts were prepared with a Nuclear Extract kit (Active Motif, Carlsbad, Calif.). Nuclear extracts of the same protein concentration from individual treatments were subject to the PPARγ transcription factor ELISA according to the manufacturer's instruction.

PC-3 xenograft tumors = test: Xenograft tumor growth (PC-3 tumors in nude mice)
Experimental: Xenograft tumor growth. Male NCr athymic nude mice (5-7 weeks of age) were obtained from the National Cancer Institute (Frederick, Md.). […] All experimental procedures utilizing these mice were performed in accordance with protocols approved by the Institutional Laboratory Animal Care and Use Committee of The Ohio State University.
Each mouse was inoculated subcutaneously in the right flank with 5×10^5 PC-3 cells suspended in 0.1 ml of serum-free medium containing 30% Matrigel (BD Biosciences, Bedford, Mass.) under isoflurane anesthesia. […] Controls received vehicle consisting of 0.5% methylcellulose and 0.1% polysorbate 80 in sterile water. The volume of drug or vehicle administered to each mouse was 0.02 ml/gram body weight. Tumors were measured weekly using calipers and their volumes calculated using a standard formula: width^2×length×0.52. Body weights were measured weekly.
Statistical analysis. […] Tumor growth data are expressed as mean tumor volumes±SE. For all data, differences were considered significant at P<0.05. Statistical procedures were performed using SPSS for Windows (SPSS, Inc., Chicago, Ill.).

[3] = inhibition of Bak BH3 peptide binding to Bcl-xL, FP, read-out: IC50 Bcl-xl/Bak
[4] = inhibition of Bak BH3 peptide binding to Bcl-2, FP, read-out: IC50 Bcl-2/Bak

T1 sequence (Q07817 1-209 limits assumed): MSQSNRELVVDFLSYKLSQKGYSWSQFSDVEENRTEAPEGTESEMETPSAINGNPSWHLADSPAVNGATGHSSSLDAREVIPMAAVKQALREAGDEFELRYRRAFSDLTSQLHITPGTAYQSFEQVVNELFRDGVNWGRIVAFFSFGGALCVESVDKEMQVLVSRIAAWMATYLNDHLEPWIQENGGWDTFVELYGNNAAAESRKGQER

SMILES: Cc1c(C)c2c(c(C)c1O)CCC(C)(COc1ccc(CC3SC(=O)NC3=O)cc1)O2 (stereo not drawn) [TG, troglitazone, reference compound]
- IC50 (Bcl-xL; [3]): 22 ± 1 µM
- IC50 (Bcl-2; [4]): 22 ± 1 µM
- IC50 (PC-3 cells; Homo sapiens, PC-3, PC-3 cells): 30 ± 2 µM
- IC50 (LNCaP cells): 22 ± 3 µM

SMILES: C=CCOc1c(C)c(C)c2c(c1C)CCC(C)(COc1ccc(/C=C3\SC(=O)NC3=O)cc1)O2 (stereo not drawn) [TG-6]
- IC50 [1]: 9 µM
- IC50 [2]: 3 µM
- IC50 (Bcl-xL; [3]): 6 ± 0.5 µM
- IC50 (Bcl-2; [4]): 5.5 ± 0.4 µM
- IC50 (PC-3 cells; Homo sapiens, PC-3, PC-3 cells): 11 ± 0.8 µM

SMILES: C=CCOc1c(C)c(C)c2c(c1C)CCC(C)(COc1ccc(/C=C3\SC(=O)N(CC(=O)OC)C3=O)cc1)O2 (stereo not drawn) [TG-9]
- IC50 [1]: > 50 µM
- IC50 [2]: > 7.5 µM
- IC50 (Bcl-xL; [3]): > 50 µM
- IC50 (Bcl-2; [4]): > 50 µM
- IC50 (PC-3 cells; Homo sapiens, PC-3, PC-3 cells): > 50 µM

SMILES: Cc1c(C)c2c(c(C)c1OC/C=C/c1ccccc1)CCC(C)(COc1ccc(/C=C3\SC(=O)NC3=O)cc1)O2 (stereo not drawn) [TG-10]
- IC50 [1]: 19 µM
- IC50 [2]: > 7.5 µM
- IC50 (Bcl-xL; [3]): 13 ± 0.9 µM
- IC50 (Bcl-2; [4]): 19 ± 0.8 µM
- IC50 (PC-3 cells; Homo sapiens, PC-3, PC-3 cells): 19 ± 0.5 µM

SMILES: Cc1c(C)c2c(c(C)c1OC(=O)CCC(=O)O)CCC(C)(COc1ccc(/C=C3\SC(=O)NC3=O)cc1)O2 (stereo not drawn) [TG-13]
- IC50 [1]: > 50 µM
- IC50 [2]: > 7.5 µM
- IC50 (Bcl-xL; [3]): 28 ± 1.4 µM
- IC50 (Bcl-2; [4]): 30 ± 1.5 µM
- IC50 (PC-3 cells; Homo sapiens, PC-3, PC-3 cells): 22 ± 0.6 µM

SMILES: CC(C)=CCOc1c(C)c(C)c2c(c1C)CCC(C)(COc1ccc(/C=C3\SC(=O)NC3=O)cc1-c1ccc(C(F)(F)F)cc1)O2 (stereo not drawn) [TG-31]
- IC50 [1]: > 50 µM
- IC50 [2]: > 7.5 µM
- IC50 (Bcl-xL; [3]): 4.9 ± 1.2 µM
- IC50 (Bcl-2; [4]): 4.7 ± 2 µM
- IC50 (PC-3 cells; Homo sapiens, PC-3, PC-3 cells): 30 ± 1.1 µM

SMILES: CCc1ccc(-c2cc(/C=C3\SC(=O)NC3=O)ccc2OCC2(C)CCc3c(C)c(OCC=C(C)C)c(C)c(C)c3O2)cc1 (stereo not drawn) [TG-33]
- IC50 [1]: > 50 µM
- IC50 [2]: > 7.5 µM
- IC50 (Bcl-xL; [3]): 18 ± 0.8 µM
- IC50 (Bcl-2; [4]): 21 ± 1.4 µM
- IC50 (PC-3 cells; Homo sapiens, PC-3, PC-3 cells): 17 ± 0.9 µM

SMILES: CCOC(=O)C(=Cc1ccc(OCC2(C)CCc3c(C)c(OCC=C(C)C)c(C)c(C)c3O2)c(Br)c1)C(=O)OCC (stereo not drawn) [TG-41]
- IC50 [1]: > 50 µM
- IC50 [2]: > 7.5 µM
- IC50 (PC-3 cells; Homo sapiens, PC-3, PC-3 cells): > 50 µM

SMILES: CC(C)=CCOc1c(C)c(C)c2c(c1C)CCC(C)(COc1ccc(C=C(C(=O)O)C(=O)O)cc1Br)O2 (stereo not drawn) [TG-42]
- IC50 [1]: > 50 µM
- IC50 [2]: > 7.5 µM
- IC50 (PC-3 cells; Homo sapiens, PC-3, PC-3 cells): 16 ± 0.3 µM

SMILES: C=CCOc1c(C)c(C)c2c(c1C)CCC(C)(COc1cccc(/C=C3\SC(=O)NC3=O)c1)O2 (stereo not drawn) [TG-51]
- IC50 [1]: 40 µM
- IC50 [2]: 4.4 µM
- IC50 (PC-3 cells; Homo sapiens, PC-3, PC-3 cells): 6.8 ± 0.2 µM

SMILES: CC(C)=CCOc1c(C)c(C)c2c(c1C)CCC(C)(COc1ccc(/C=C3\SC(=O)NC3=O)cc1Br)O2 (stereo not drawn) [TG-88]
- IC50 [2]: > 7.5 µM
- IC50 (Bcl-xL; [3]): 1.8 ± 0.2 µM
- IC50 (Bcl-2; [4]): 2.8 ± 0.3 µM
- IC50 (PC-3 cells; Homo sapiens, PC-3, PC-3 cells): 2.5 ± 0.2 µM
- IC50 (PC-3 cells; PC-3 cells): 4.2 ± 0.2 µM
- activity in PPARγ activation (PPARγ): lacked appreciable activity
- extent of tumor growth inhibition (PC-3 xenograft tumors; 100 mg/kg/day oral, after 63 days of treatment): 50%
- extent of tumor growth inhibition (PC-3 xenograft tumors; 200 mg/kg/day oral, after 63 days of treatment): 61%
- tolerability, signs of toxicity (PC-3 xenograft tumors; 100 and 200 mg/kg/day oral, nude mice): without observable signs of toxicity
- body weights (PC-3 xenograft tumors; 100 and 200 mg/kg/day oral, throughout the course of study): stable body weights
- gross pathology at necropsy (PC-3 xenograft tumors; after 63 days of treatment): No gross pathological abnormalities

SMILES: CC1(COc2ccc(/C=C3\SC(=O)NC3=O)cc2)CCCCC1 [Δ2-CG, 5-[4-(1-methyl-cyclohexylmethoxy)-benzylidene]-thiazolidine-2,4-dione]
- IC50 [1]: 70 µM
- IC50 [2]: 13 µM
- IC50 (Bcl-xL; [3]): 17 ± 2 µM
- IC50 (Bcl-2; [4]): 22 ± 3 µM
- IC50 (PC-3 cells; Homo sapiens, PC-3, PC-3 cells): 15 ± 1.2 µM
- activity in PPARγ activation (PPARγ): completely devoid of the ligand binding activity

SMILES: CCc1ccc(CCOc2ccc(/C=C3\SC(=O)NC3=O)cc2)nc1 [Δ2-PG, 5-{4-[2-(5-ethyl-pyridin-2-yl)-ethoxy]-benzylidene}-thiazolidine-2,4-dione]
- IC50 (Bcl-xL; [3]): > 50 µM
- IC50 (Bcl-xL; unit inferred, read-out: IC50 for inhibiting BH3-mediated protein interactions (Bcl-xL)): > 50 µM
- IC50 (Bcl-2; [4]): > 50 µM
- IC50 (Bcl-2; unit inferred, read-out: IC50 for inhibiting BH3-mediated protein interactions (Bcl-2)): > 50 µM
- IC50 (PC-3 cells; Homo sapiens, PC-3, PC-3 cells): > 50 µM
- activity in PPARγ activation (PPARγ): completely devoid of the ligand binding activity
